Molecular target: T1, B. anthracis DHFR (Bacillus anthracis, UniProt Q81R22)
T1 construct: gene dfrA
Assay: biochemical

T1 sequence (Q81R22 1-162): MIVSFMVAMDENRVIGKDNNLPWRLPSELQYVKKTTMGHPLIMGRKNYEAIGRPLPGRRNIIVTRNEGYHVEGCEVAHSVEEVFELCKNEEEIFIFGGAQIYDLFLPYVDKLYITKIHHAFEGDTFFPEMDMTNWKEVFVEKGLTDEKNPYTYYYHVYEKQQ

COc1cc(Cc2cnc(N)nc2N)cc(/C=C/C(=O)N2N=Cc3ccccc3C2C)c1OC (racemic) [6a, (±)-(E)-3-(5-((2,4-Diaminopyrimidin-5-yl)methyl)-2,3-dimethoxyphenyl)-1-(1-methylphthalazin-2(1H)-yl)prop-2-en-1-one] and CCC1c2ccccc2C=NN1C(=O)/C=C/c1cc(Cc2cnc(N)nc2N)cc(OC)c1OC (racemic) [6b, (±)-(E)-3-(5-((2,4-Diaminopyrimidin-5-yl)methyl)-2,3-dimethoxyphenyl)-1-(1-ethylphthalazin-2(1H)-yl)prop-2-en-1-one] are within 1.5-fold of each other in Ki: 8.8 ± 0.2 nM for the first, 6.8 ± 0.2 nM for the second.

Going from CCCCC1c2ccccc2C=NN1C(=O)/C=C/c1cc(Cc2cnc(N)nc2N)cc(OC)c1OC (racemic) [6c, (±)-(E)-1-(1-n-Butylphthalazin-2(1H)-yl)-3-(5-((2,4-diaminopyrimidin-5-yl)methyl)-2,3-dimethoxyphenyl)prop-2-en-1-one] to CCOC(=O)CC1c2ccccc2C=NN1C(=O)/C=C/c1cc(Cc2cnc(N)nc2N)cc(OC)c1OC (racemic) [11b, Ethyl (±)-(E)-2-(2-(3-(5-((2,4-Diaminopyrimidin-5-yl)methyl)-(2,3-dimethoxyphenyl)acryloyl)-phthal-azin-2(1H)-yl)acetate], the Ki rises from 7.9 ± 0.2 nM to 24.9 ± 0.3 nM (3.2-fold).

First: CCC(C)C1c2ccccc2C=NN1C(=O)/C=C/c1cc(Cc2cnc(N)nc2N)cc(OC)c1OC (racemic) [6d, (±)-(E)-1-(1-s-Butylphthalazin-2(1H)-yl)-3-(5-((2,4-diaminopyrimidin-5-yl)methyl)-2,3-dimethoxyphenyl)prop-2-en-1-one]
Second: COc1cc(Cc2cnc(N)nc2N)cc(/C=C/C(=O)N2N=Cc3ccccc3C2C2CC2)c1OC (racemic) [6e, (±)-(E)-1-(1-Cyclopropylphthalazin-2(1H)-yl)-3-(5-((2,4-diaminopyrimidin-5-yl)methyl)-2,3-dimethoxyphenyl)prop-2-en-1-one]
The Ki of the first is 2.1-fold higher: 10.4 ± 0.2 nM for the first, 4.9 ± 0.2 nM for the second.

COc1cc(Cc2cnc(N)nc2N)cc(/C=C/C(=O)N2N=Cc3ccccc3C2c2ccco2)c1OC (racemic) [6f, (±)-(E)-3-(5-((2,4-Diaminopyrimidin-5-yl)methyl)-2,3-dimethoxyphenyl)-1-(1-(furan-2-yl)phthalazin-2(1H)-yl)prop-2-en-1-one] and COc1cc(Cc2cnc(N)nc2N)cc(/C=C/C(=O)N2N=Cc3ccccc3C2c2cccs2)c1OC (racemic) [6g, (±)-(E)-3-(5-((2,4-Diaminopyrimidin-5-yl)methyl)-2,3-dimethoxyphenyl)-1-(1-(thiophen-2-yl)-phthalazin-2(1H)-yl)prop-2-en-1-one] are within 1.5-fold of each other in Ki: 5.9 ± 0.2 nM for the first, 8.4 ± 0.2 nM for the second.

First: COc1cc(Cc2cnc(N)nc2N)cc(/C=C/C(=O)N2N=Cc3ccccc3C2c2ccccn2)c1OC (racemic) [6h, (±)-(E)-3-(5-((2,4-Diaminopyrimidin-5-yl)methyl)-2,3-dimethoxyphenyl)-1-(1-(pyridin-2-yl)phthalazin-2(1H)-yl)prop-2-en-1-one]
Second: COC(=O)CC1c2ccccc2C=NN1C(=O)/C=C/c1cc(Cc2cnc(N)nc2N)cc(OC)c1OC (racemic) [11c, Methyl (±)-(E)-2-(2-(3-(5-((2,4-Diaminopyrimidin-5-yl)methyl)-2,3-dimethoxyphenyl)acryloyl)-phthal-azin-2(1H)-yl)acetate]
The Ki of the first is 2.2-fold lower: 9 ± 0.2 nM for the first, 20 ± 0.3 nM for the second. The first binds more tightly here.

Work on COc1cc(Cc2cnc(N)nc2N)cc(/C=C/C(=O)N2N=Cc3ccccc3C2CC(=O)OC(C)(C)C)c1OC (racemic) [11a, t-Butyl (±)-(E)-2-(2-(3-(5-((2,4-Diaminopyrimidin-5-yl)methyl)-2,3-dimethoxyphenyl)acryloyl)-phthal-azin-2(1H)-yl)acetate] yielded a Ki of 59 ± 0.9 nM.

— article PMC4016962 (Molecules, 2014)
